{
  "source": "paper PMC10644327",
  "about": "“A randomized, double‐blind phase 1b study evaluating the safety, tolerability, pharmacokinetics and pharmacodynamics of the NLRP3 inhibitor selnoflast in patients with moderate to severe active ulcerative colitis” (Clinical and Translational Medicine, 2023)",
  "key": {"[1]": {"conditions": "cited from earlier work"}, "IL‐1β": {"tested_on": "IL‐1β", "test": "IL‐1β IC90 calculated from in vitro studies", "assay_type": "cell-based", "conditions": "estimated"}, "AIM2": {"tested_on": "AIM2", "parameters": "method as in unpublished results", "conditions": "ref unpublished results; cited from earlier work"}, "[2]": {"parameters": "method as in Investigator Brochure", "conditions": "ref Investigator Brochure, cited from earlier work"}, "[3]": {"parameters": "method as in Investigator Brochure", "conditions": "ref Investigator Brochure, cited from earlier work", "remark": "listed apart in the source"}, "Caspase‐1": {"tested_on": "Caspase‐1", "test": "Caspase‐1 (pro and active form) WES‐assay in sigmoid colon tissue", "assay_type": "in vivo, human", "conditions": "after 7 days’ treatment", "experimental": "Tissue biopsies from the sigmoid colon were obtained before start of treatment (up to Day −3) and at the end of treatment (Day 7). For operational reasons, biopsies were taken 2−4.5 h post‐dose on Day 7. Stool samples were obtained at screening, before start of treatment, throughout the study, and at the 14‐day follow‐up visit. Levels of calprotectin were determined in stool samples. Sigmoid colon tissue was processed for RNA and DNA extraction as well as for single‐cell analysis, subsequent transcriptomic analysis, and identification of PD biomarkers. Sigmoid colon tissue samples were also processed for histology (hematoxylin and eosin staining, immunohistochemistry, fluorescence in situ hybridization) in order to characterize the cell types present (i.e., neutrophils and inflammatory monocytes). Histological analysis was performed on sigmoid colon tissue samples (from baseline and Day 7) using the disease‐specific histological indices Geboes score[23] and Nancy index.[24] Caspase‐1 (pro and active form) was assessed using a validated WES‐assay (manuscript in preparation)."}, "[4]": {"test": "Selnoflast plasma pharmacokinetics in UC patients (LC‐MS/MS, non‐compartmental)", "assay_type": "in vivo, human", "conditions": "for Tmax / concentration at 24 h / Cmax / half-life / AUC: 450 mg; for concentration at 24 h: read-out: Ctrough", "experimental": "Selnoflast (450 mg QD or matching placebo) was administered orally in the morning following an overnight fast of at least 8 h during the patients’ 7‐day clinic stay. Water intake was restricted for 1 h pre‐dose and 1 h post‐dose, and no food was allowed until at least 4 h post‐dose.\nThe concentrations of selnoflast were determined in a total of 260 human plasma samples (obtained during the study) using a validated liquid chromatography‐tandem mass spectrometry (LC‐MS/MS) method. Sample analysis was performed after the addition of the internal standard by protein precipitation followed by LC‐MS/MS. The calibration range was between 40.0 ng/mL and 40000.0 ng/mL; the lower limit of quantification in human plasma was 40.0 ng/mL. Study samples were analyzed within the validated frozen storage stability timeframe of 371 days at −20°C and −70°C, the five validated freeze/thaw cycles, and proven room temperature storage stability of 24 h, in a total of six analytical runs. Five out of six runs met the acceptance criteria. The precision and accuracy (expressed as %RE) of the assay, as determined from the analysis of quality control samples, was satisfactory throughout the study.\nAll randomized patients were included in the intent‑to‑treat population. All patients completed all doses of study treatment and all were included in the safety, PK and PD analyses. Safety data were grouped according to treatment received and were tabulated and/or listed, as appropriate. PK parameters (including Tmax, Cmax, Ctrough, total exposure, drug accumulation, clearance, volume of distribution and T1/2) were extrapolated directly from the plasma concentration‐versus‐time profiles or calculated using standard non‐compartmental methods. PK and PD parameters were summarized and presented descriptively."}, "[5]": {"tested_on": "cells isolated from the sigmoid colon", "test": "Single‐cell RNA sequencing of sigmoid colon tissue", "assay_type": "in vivo, human", "conditions": "pseudobulk method, baseline and Day 7", "experimental": "Single cell suspensions were obtained from cryopreserved sigmoid colon tissue samples through mechanical and enzymatic dissociation, and loaded onto a 10X chromium controller for cell partitioning. Single‐cell RNA‐sequencing libraries were prepared using 10X genomics NextGEM single‐cell 3′ version 3.1 reagents and sequenced on an Illumina NovaSeq 6000 sequencer. Quality control, data filtering, and data analysis was performed with the BESCA software (version 2.5.1)[27] and the RiBIOS software suite, as well as using custom scripts in both R (version 4.2.0) and Python (version 3.8)."}, "[6]": {"conditions": "cited from earlier work; for Tolerability: healthy subjects, single doses 20-600 mg and multiple doses up to 450 mg QD for 7 days, ref unpublished results, study IZD334-001"}, "[7]": {"conditions": "450 mg QD repeat dosing, UC patients"}, "[8]": {"conditions": "human, plasma, po, 450 mg QD oral, fasted, UC patients N = 13, Day 1, geometric mean (CV% geo mean)"}, "[9]": {"conditions": "human, plasma, po, 450 mg QD oral, fasted, UC patients N = 13, steady‐state (Day 5), geometric mean (CV% geo mean)"}},
  "note": "Like-named read-outs stand apart in the source and are kept apart here.",
  "data": [
    {"smiles": "CCN1CCC(S(=O)(=O)NC(=O)Nc2c3c(cc4c2CCC4)CCC3)CC1", "note": "[Selnoflast, selnoflast]", "values": [
      {"measurement": "Dose dependence of systemic exposure", "setting": "[1]; healthy subjects, 20 to 600 mg, ref unpublished results, IZD334‐001", "value": "approximately dose‐proportional"},
      {"measurement": "Median Tmax", "setting": "[1]; healthy subjects, single administration, 20 to 600 mg, fasted, ref unpublished results, IZD334‐001", "value": "0.5 to 6.0", "unit": "h"},
      {"measurement": "Steady‐state achieved", "setting": "[1]; healthy subjects, ref unpublished results, IZD334‐001", "value": "Day 2"},
      {"measurement": "Change in exposure on repeat dosing", "setting": "[1]; healthy volunteers, repeat dosing for 7 days, ref study IZD334-001", "value": "no indication of a change"},
      {"measurement": "half-life", "setting": "[1]; healthy volunteers, ref study IZD334-001", "value": "approximately 7 hours"},
      {"measurement": "IL‐1β IC90 (tissue)", "setting": "IL‐1β", "value": 1.94, "unit": "µg/g"},
      {"measurement": "IC90", "setting": "IL‐1β; read-out: IL‐1β IC90 (plasma)", "value": 2, "unit": "µg/mL"},
      {"measurement": "Inhibitory activity on AIM2 inflammasome", "setting": "AIM2", "value": "no inhibitory activity"},
      {"measurement": "Signs of hepatotoxicity", "setting": "[2]; 39-week GLP study, monkey", "value": "no signs of hepatotoxicity"},
      {"measurement": "Bacterial, viral, fungal, and other opportunistic infections", "setting": "[2]; monkeys, nonclinical toxicology studies", "value": "No evidence"},
      {"measurement": "Signs of hepatotoxicity", "setting": "[3]; 26-week GLP study, rat", "value": "no signs of hepatotoxicity"},
      {"measurement": "Bacterial, viral, fungal, and other opportunistic infections", "setting": "[3]; rats, nonclinical toxicology studies", "value": "No evidence"},
      {"measurement": "Caspase‐1 (pro‐ and active forms) change", "setting": "Caspase‐1", "value": "did not show marked changes"},
      {"measurement": "Ctrough", "setting": "[4]; 450 mg QD oral, fasted, UC patients N = 13, Day 1 (Clast, 24 h), geometric mean (CV% geo mean)", "value": "2.55 (38.8) μg/mL"},
      {"measurement": "CL/F", "setting": "[4]; 450 mg QD oral, fasted, UC patients N = 13, Day 1, geometric mean (CV% geo mean)", "value": "1.82 (17.5) L/h"},
      {"measurement": "Ctrough", "setting": "[4]; 450 mg QD oral, fasted, UC patients N = 13, steady‐state (Day 5) (Clast, 24 h), geometric mean (CV% geo mean)", "value": "2.66 (46.6) μg/mL"},
      {"measurement": "CL/F", "setting": "[4]; 450 mg QD oral, fasted, UC patients N = 13, steady‐state (Day 5), geometric mean (CV% geo mean)", "value": "1.68 (21.0) L/h"},
      {"measurement": "Accumulation: increase in AUCtau from Day 1 to Day 5", "setting": "[4]; [7]", "value": 8.6, "unit": "%"},
      {"measurement": "Accumulation: increase in Clast from Day 1 to Day 5", "setting": "[4]; [7]", "value": 4.3, "unit": "%"},
      {"measurement": "Accumulation: increase in Cmax from Day 1 to Day 5", "setting": "[4]; [7]", "value": 17, "unit": "%"},
      {"measurement": "Steady‐state achieved", "setting": "[4]; 450 mg QD, UC patients", "value": "Day 2"},
      {"measurement": "Tmax", "setting": "[4]; human, plasma, oral, UC patients in the present study, read-out: Median Tmax", "value": "1 to 2", "unit": "h"},
      {"measurement": "concentration at 24 h", "setting": "[4]; human, plasma, po, 450 mg QD oral, fasted, UC patients N = 13, Day 1 (Clast, 24 h), geometric mean (CV% geo mean)", "value": 2550, "unit": "ng/mL"},
      {"measurement": "Cmax", "setting": "[4]; [8]", "value": 25000, "unit": "ng/mL"},
      {"measurement": "half-life", "setting": "[4]; [8]", "value": 6.9, "unit": "h"},
      {"measurement": "AUC", "setting": "[4]; human, plasma, po, 450 mg QD oral, fasted, UC patients N = 13, Day 1, geometric mean (CV% geo mean), read-out: AUC0‐inf", "value": 275, "unit": "µg·h/mL"},
      {"measurement": "AUC", "setting": "[4]; human, plasma, po, 450 mg QD oral, fasted, UC patients N = 13, Day 1, geometric mean (CV% geo mean), read-out: AUCtau", "value": 247, "unit": "µg·h/mL"},
      {"measurement": "Tmax", "setting": "[4]; human, plasma, po, 450 mg QD oral, fasted, UC patients N = 13, Day 1, median (range), read-out: Tmax", "value": 1.97, "unit": "h"},
      {"measurement": "concentration at 24 h", "setting": "[4]; human, plasma, po, 450 mg QD oral, fasted, UC patients N = 13, steady‐state (Day 5) (Clast, 24 h), geometric mean (CV% geo mean)", "value": 2660, "unit": "ng/mL"},
      {"measurement": "Cmax", "setting": "[4]; [9]", "value": 29300, "unit": "ng/mL"},
      {"measurement": "half-life", "setting": "[4]; [9]", "value": 6.93, "unit": "h"},
      {"measurement": "AUC", "setting": "[4]; human, plasma, po, 450 mg QD oral, fasted, UC patients N = 13, steady‐state (Day 5), geometric mean (CV% geo mean), read-out: AUCtau", "value": 268, "unit": "µg·h/mL"},
      {"measurement": "Tmax", "setting": "[4]; human, plasma, po, 450 mg QD oral, fasted, UC patients N = 13, steady‐state (Day 5), median (range), read-out: Tmax", "value": 1, "unit": "h"},
      {"measurement": "Vd/F", "setting": "[4]; human, plasma, 450 mg QD oral, fasted, UC patients N = 13, Day 1, geometric mean (CV% geo mean), read-out: Vz/F", "value": 18.1, "unit": "L"},
      {"measurement": "Cellular composition and gene expression, difference between treatment arms", "setting": "[5]", "value": "No significant differences"},
      {"measurement": "Bacterial, viral, fungal, and other opportunistic infections", "setting": "[6]; HVs in the Phase I clinical study, ref Investigator Brochure", "value": "No evidence"},
      {"measurement": "Healthy volunteers with mild transaminase increase", "setting": "[6]; MAD part, volunteers who received RO7486967, no clear dose dependency, not clinically significant, ref Study IZD334-001", "value": "4 out of 18"},
      {"measurement": "Tolerability", "setting": "[6]", "value": "well tolerated"},
      {"measurement": "Tolerability", "setting": "[6]; listed as RO7486967", "value": "safe and well tolerated"}
    ]}
  ]
}
